From PubChem BioAssay AID256 (DTP/NCI, 2004)
Values joined by “and” are separate entries in the source; they are usually repeats but may differ in a detail not shown here. Equal entries are not always repeated. Inconclusive results and toxic doses are left out.

Tested on: CD2F1 mice, L1210 leukemia ip, survival T/C
Experiment: NCI In Vivo Anticancer Drug Screen. Data for tumor model L1210 Leukemia (intraperitoneal) in CD2F1 (CDF1) mice
Conditions: endpoint: mean survival time, higher = longer survival
Outline: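 Activity against a transplanted murine tumor was judged by comparing the compound group with a vehicle group. The outcome in the treated animals was divided by that in the controls.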

[1] = dose: 75.0 mg/kg/injection, schedule: Q01DX001 (ip), vehicle: saline
[2] = dose: 150.0 mg/kg/injection, schedule: Q01DX001 (ip), vehicle: saline
[3] = dose: 300.0 mg/kg/injection, schedule: Q01DX001 (ip), vehicle: saline
[4] = dose: 12.5 mg/kg/injection, schedule: Q01DX005 (ip), vehicle: other
[5] = dose: 25.0 mg/kg/injection, schedule: Q01DX005 (ip), vehicle: other
[6] = dose: 50.0 mg/kg/injection, schedule: Q01DX005 (ip), vehicle: other
[7] = dose: 100.0 mg/kg/injection, schedule: Q01DX001 (ip), vehicle: saline with Tween-80
[8] = dose: 200.0 mg/kg/injection, schedule: Q01DX001 (ip), vehicle: saline with Tween-80
[9] = dose: 400.0 mg/kg/injection, schedule: Q01DX001 (ip), vehicle: saline with Tween-80
[10] = dose: 100.0 mg/kg/injection, schedule: Q01DX001 (ip), vehicle: saline
[11] = dose: 200.0 mg/kg/injection, schedule: Q01DX001 (ip), vehicle: saline
[12] = dose: 400.0 mg/kg/injection, schedule: Q01DX001 (ip), vehicle: saline
[13] = dose: 100.0 mg/kg/injection, schedule: Q04DX003 (ip), vehicle: saline with Tween-80
[14] = dose: 200.0 mg/kg/injection, schedule: Q04DX003 (ip), vehicle: saline with Tween-80
[15] = dose: 400.0 mg/kg/injection, schedule: Q04DX003 (ip), vehicle: saline with Tween-80
[16] = dose: 5.0 mg/kg/injection, schedule: Q01DX009 (ip), vehicle: saline
[17] = dose: 5.0 mg/kg/injection, schedule: Q04DX003 (ip), vehicle: saline
[18] = dose: 10.0 mg/kg/injection, schedule: Q01DX009 (ip), vehicle: saline
[19] = dose: 10.0 mg/kg/injection, schedule: Q04DX003 (ip), vehicle: saline
[20] = dose: 20.0 mg/kg/injection, schedule: Q01DX009 (ip), vehicle: saline
[21] = dose: 20.0 mg/kg/injection, schedule: Q04DX003 (ip), vehicle: saline
[22] = dose: 100.0 mg/kg/injection, schedule: Q01DX009 (ip), vehicle: saline with Tween-80
[23] = dose: 200.0 mg/kg/injection, schedule: Q01DX009 (ip), vehicle: saline with Tween-80
[24] = dose: 400.0 mg/kg/injection, schedule: Q01DX009 (ip), vehicle: saline with Tween-80
[25] = dose: 100.0 mg/kg/injection, schedule: Q04DX002 (ip), vehicle: saline
[26] = dose: 200.0 mg/kg/injection, schedule: Q04DX002 (ip), vehicle: saline

`O=C(Nc1ccccc1[N+](=O)[O-])c1ccc(C(=O)Nc2ccccc2[N+](=O)[O-])cc1` was tested, and the T/C [1] was 87 % of control, the T/C [2] was 96 % of control and the T/C [3] was 91 % of control.

For `CCCCCCC[CH2][Sn]1([CH2]CCCCCCC)[O]CC2OC(n3cc(C)c(=O)[nH]c3=O)CC2[O]1` (configuration not stated), the T/C [4] was 94 % of control, the T/C [5] was 100 % of control and the T/C [6] was 114 % of control.

With `O=c1c2ccccc2sc2ccc3c(ccc4sc5ccccc5c(=O)c43)c12` the T/C [7] was 93 % of control, the T/C [8] was 100 % of control and the T/C [9] was 92 % of control.

`CC1CN(CCC#N)C(=O)S1(=O)=O` (configuration not stated) was tested, and the T/C (dose: 75.0 mg/kg/injection, schedule: Q01DX001 (ip), vehicle: other) was 108 % of control.

In the case of `CC(=O)NC1CC(n2cnc3c(=O)[nH]cnc32)OC1C(C)O` (configuration not stated), the T/C (dose: 12.5 mg/kg/injection, schedule: Q01DX005 (ip), vehicle: water) is reported as 101 % of control, the T/C (dose: 25.0 mg/kg/injection, schedule: Q01DX005 (ip), vehicle: water) is reported as 98 % of control and the T/C (dose: 50.0 mg/kg/injection, schedule: Q01DX005 (ip), vehicle: water) is reported as 101 % of control. The T/C (dose: 100.0 mg/kg/injection, schedule: Q01DX005 (ip), vehicle: water) was 98 % of control and the T/C (dose: 200.0 mg/kg/injection, schedule: Q01DX005 (ip), vehicle: water) was 92 % of control.

For `Cc1nc(-c2ccccc2)c(Cc2ccccc2O)c(=O)[nH]1`, the T/C [10] was 97 % of control, the T/C [11] was 97 % of control and the T/C [12] was 100 % of control.

With `c1ccc(OCCSc2ccccc2)cc1` the T/C [10] was 102 % of control, the T/C [11] was 104 % of control and the T/C [12] was 104 % of control.

In the case of `COC(=O)CC1(C(=O)OC)Nc2cc(Cl)c(Cl)cc2S(=O)(=O)N1O` (configuration not stated), the T/C [7] is reported as 106 % of control, the T/C [8] is reported as 94 % of control and the T/C [9] is reported as 94 % of control.

For `Nc1ccccc1SC1CC(=O)N(c2ccccc2Cl)C1=O` (configuration not stated), the T/C [13] was 93 % of control, the T/C [14] was 89 % of control and the T/C [15] was 89 % of control.

In the case of `CNC1CCCCC1[N+](C)(C)C` (configuration not stated), the T/C [16] is reported as 98 % of control, the T/C [17] is reported as 103 % of control and the T/C [18] is reported as 101 % of control. The T/C [19] was 101 % of control, the T/C [20] was 96 % of control and the T/C [21] was 98 % of control.

In the case of `CCCCCCCCOC(=O)c1cc([N+](=O)[O-])c(Sc2ncnc3nc[nH]c23)c([N+](=O)[O-])c1`, the T/C (dose: 11.0 mg/kg/injection, schedule: Q01DX005 (ip), vehicle: other) is reported as 112 % of control, the T/C [4] is reported as 115 % of control and the T/C [5] is reported as 172 % of control. The T/C [6] was 118 % of control and the T/C (dose: 100.0 mg/kg/injection, schedule: Q01DX005 (ip), vehicle: other) was 107 % of control.

In the case of `CC(O)(C(=O)O)c1ccccc1` (configuration not stated), the T/C [1] is reported as 102 % of control, the T/C [2] is reported as 112 % of control and the T/C [3] is reported as 100 % of control.

`N/C(=N\O)c1cn(C2OC(CO)C(O)C2O)c2ncncc12` (configuration not stated) was tested, and the T/C (dose: 25.0 mg/kg/injection, schedule: Q01DX009 (ip), vehicle: saline) was 159 % of control, the T/C (dose: 50.0 mg/kg/injection, schedule: Q01DX009 (ip), vehicle: saline) was 168 % of control and the T/C (dose: 100.0 mg/kg/injection, schedule: Q01DX009 (ip), vehicle: saline) was 102 % of control.

`O=C(Nc1ccccc1)Oc1ccc2ccccc2c1` was tested, and the T/C [10] was 96 % of control, the T/C [11] was 94 % of control and the T/C [12] was 97 % of control.

`CC1CN(Cc2ccccc2)C1` was tested, and the T/C (dose: 12.5 mg/kg/injection, schedule: Q01DX001 (ip), vehicle: acetone) was 86 % of control, the T/C (dose: 25.0 mg/kg/injection, schedule: Q01DX001 (ip), vehicle: acetone) was 96 % of control and the T/C (dose: 50.0 mg/kg/injection, schedule: Q01DX001 (ip), vehicle: acetone) was 94 % of control.

With `CCOC(=O)C1CC1C(=O)OCC` (configuration not stated) the T/C [22] was 88 % of control, the T/C [13] was 100 % of control and the T/C [23] was 104 % of control. The T/C [14] was 96 % of control, the T/C [24] was 100 % of control and the T/C [15] was 103 % of control.

With `O=C(Oc1ccc(O)cc1)N(c1cccc2ccccc12)c1cccc2ccccc12` the T/C (dose: 25.0 mg/kg/injection, schedule: Q04DX002 (ip), vehicle: saline with Tween-80) was 100 % of control, the T/C (dose: 50.0 mg/kg/injection, schedule: Q04DX002 (ip), vehicle: saline with Tween-80) was 95 % of control and the T/C (dose: 100.0 mg/kg/injection, schedule: Q04DX002 (ip), vehicle: saline with Tween-80) was 91 % of control and 98 % of control. For the same molecule, the T/C (dose: 400.0 mg/kg/injection, schedule: Q04DX002 (ip), vehicle: saline with Tween-80) was 95 % of control.

`COC(=O)c1c[nH]c(=S)n1C(C)c1ccccc1` (configuration not stated) was tested, and the T/C [22] was 105 % of control, the T/C [13] was 93 % of control and the T/C [23] was 106 % of control. The T/C [14] was 95 % of control and the T/C [15] was 101 % of control.

`COC(=O)C1=CCC=CC1` was tested, and the T/C [22] was 104 % of control and the T/C [23] was 104 % of control.

For `CCOC(=O)CC/C(C)=N\N(C)C`, the T/C [22] was 103 % of control, the T/C [23] was 97 % of control and the T/C [24] was 96 % of control.

For `O=c1c2[nH]cnc2ncn1C1CCCC1`, the T/C (dose: 100.0 mg/kg/injection, schedule: Q01DX001 (ip), vehicle: other) was 100 % of control, the T/C (dose: 200.0 mg/kg/injection, schedule: Q01DX001 (ip), vehicle: other) was 100 % of control and the T/C (dose: 400.0 mg/kg/injection, schedule: Q01DX001 (ip), vehicle: other) was 101 % of control.

`COCC(OC)C(OC)C(OC)C(C=O)OC` (configuration not stated) was tested, and the T/C (dose: 50.0 mg/kg/injection, schedule: Q01DX001 (ip), vehicle: Klucel (hydroxypropylcellulose) (HPC)) was 99 % of control, the T/C (dose: 100.0 mg/kg/injection, schedule: Q01DX001 (ip), vehicle: Klucel (hydroxypropylcellulose) (HPC)) was 99 % of control and the T/C (dose: 200.0 mg/kg/injection, schedule: Q01DX001 (ip), vehicle: Klucel (hydroxypropylcellulose) (HPC)) was 105 % of control.

`CCCSc1ccccc1` was tested, and the T/C [10] was 100 % of control and the T/C [11] was 102 % of control.

In the case of `CC(=O)Nc1cc(C)c(C)cc1[N+](=O)[O-]`, the T/C [7] is reported as 98 % of control, the T/C [8] is reported as 101 % of control and the T/C [9] is reported as 98 % of control.

With `CN=S(=O)(OCCCCCOS(=O)(=NC)c1ccccc1)c1ccccc1` (configuration not stated) the T/C (dose: 12.5 mg/kg/injection, schedule: Q01DX009 (ip), vehicle: saline with Tween-80) was 103 % of control, the T/C (dose: 25.0 mg/kg/injection, schedule: Q01DX009 (ip), vehicle: saline with Tween-80) was 106 % of control and the T/C (dose: 50.0 mg/kg/injection, schedule: Q01DX009 (ip), vehicle: saline with Tween-80) was 103 % of control. For the same molecule, the T/C [22] was 106 % of control.

In the case of `C[N+]1(CCO)C2CCC1CC(O)C2` (configuration not stated), the T/C [25] is reported as 97 % of control and the T/C [26] is reported as 102 % of control.

In the case of `Clc1cc(N2CC2)nc(N2CC2)n1`, the T/C (dose: 0.94 mg/kg/injection, schedule: Q01DX009 (ip), vehicle: saline) is reported as 122 % of control, the T/C (dose: 1.41 mg/kg/injection, schedule: Q01DX009 (ip), vehicle: saline) is reported as 150 % of control and the T/C (dose: 1.6 mg/kg/injection, schedule: Q01DX009 (ip), vehicle: saline) is reported as 120 % of control. For the same molecule, the T/C (dose: 4.5 mg/kg/injection, schedule: Q01DX009 (ip), vehicle: saline) was 168 % of control and the T/C (dose: 7.5 mg/kg/injection, schedule: Q01DX009 (ip), vehicle: saline) was 89 % of control.

With `Cn1cccnc1=O` the T/C [25] was 106 % of control, the T/C [26] was 95 % of control and the T/C (dose: 400.0 mg/kg/injection, schedule: Q04DX002 (ip), vehicle: saline) was 106 % of control.

`O=C(O)c1cnc(Cl)nc1Nc1ccccc1I` was tested, and the T/C [8] was 86 % of control.

For `COc1ccc2c(ccc[n+]2C)c1`, the T/C [16] was 106 % of control, the T/C [17] was 103 % of control and the T/C [18] was 107 % of control. For the same molecule, the T/C [19] was 101 % of control, the T/C (dose: 12.5 mg/kg/injection, schedule: Q01DX009 (ip), vehicle: alcohol) was 107 % of control and the T/C (dose: 12.5 mg/kg/injection, schedule: Q04DX003 (ip), vehicle: acetone) was 104 % of control. The T/C [20] was 106 % of control, the T/C [21] was 109 % of control and the T/C (dose: 25.0 mg/kg/injection, schedule: Q01DX009 (ip), vehicle: alcohol) was 116 % of control. For the same molecule, the T/C (dose: 25.0 mg/kg/injection, schedule: Q04DX003 (ip), vehicle: acetone) was 106 % of control and the T/C (dose: 50.0 mg/kg/injection, schedule: Q04DX003 (ip), vehicle: acetone) was 106 % of control.
